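48-hour exposure; five concentrations; linearly interpolated endpoints. GI50 is the concentration that inhibits growth by half.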 Activity calls are given as the source filed them. No stated cut-off is given here; in the data, active = GI50 up to about 1.1 µM and inactive = higher.
Tests used:
Assay in all cases: growth of human tumour cells (NCI), 48 h
UACC-62 = tested on: UACC-62
UO-31 = tested on: UO-31
K562 = tested on: K562
CCRF-CEM = tested on: CCRF-CEM
SK-MEL-2 = tested on: SK-MEL-2
OVCAR-8 = tested on: OVCAR-8
RPMI-8226 = tested on: RPMI-8226
NCI/ADR-RES = tested on: NCI/ADR-RES
SR = tested on: SR
SN12C = tested on: SN12C
HCT-15 = tested on: HCT-15
SK-MEL-28 = tested on: SK-MEL-28
SF-295 = tested on: SF-295
SNB-75 = tested on: SNB-75
A549 = tested on: A549
DU-145 = tested on: DU-145
A498 = tested on: A498
UACC-257 = tested on: UACC-257
NCI-H23 = tested on: NCI-H23
HCT-116 = tested on: HCT-116
MDA-MB-231 = tested on: MDA-MB-231
ACHN = tested on: ACHN
COLO 205 = tested on: COLO 205
EKVX = tested on: EKVX
OVCAR-3 = tested on: OVCAR-3
SK-OV-3 = tested on: SK-OV-3
HOP-92 = tested on: HOP-92
PC-3 = tested on: PC-3
SK-MEL-5 = tested on: SK-MEL-5
TK-10 = tested on: TK-10
OVCAR-5 = tested on: OVCAR-5
Hs-578T = tested on: Hs-578T
MCF7 = tested on: MCF7
M14 = tested on: M14
HOP-62 = tested on: HOP-62
HT-29 = tested on: HT-29
786-0 = tested on: 786-0
LOX IMVI = tested on: LOX IMVI
SW-620 = tested on: SW-620
MDA-MB-435 = tested on: MDA-MB-435
SF-268 = tested on: SF-268
MDA-N = tested on: MDA-N
KM12 = tested on: KM12
IGROV-1 = tested on: IGROV-1
MOLT-4 = tested on: MOLT-4
NCI-H226 = tested on: NCI-H226
SNB-19 = tested on: SNB-19
U-251 = tested on: U-251
T47D = tested on: T47D
Malme-3M = tested on: Malme-3M
NCI-H460 = tested on: NCI-H460
HCC 2998 = tested on: HCC 2998
RXF 393 = tested on: RXF 393

In the case of `O=C1/C(=C/c2cccs2)NC(=S)N1CN1CCOCC1`, the GI50 (UACC-62) is reported as > 100 µM (inactive), the GI50 (UO-31) is reported as > 100 µM (inactive) and the GI50 (K562) is reported as > 100 µM (inactive). For the same compound, the GI50 (CCRF-CEM) was > 100 µM (inactive), the GI50 (SK-MEL-2) was > 100 µM (inactive) and the GI50 (OVCAR-8) was > 100 µM (inactive). The GI50 (RPMI-8226) was > 100 µM (inactive), the GI50 (NCI/ADR-RES) was > 100 µM (inactive) and the GI50 (SR) was > 100 µM (inactive). The GI50 (SN12C) was > 100 µM (inactive), the GI50 (HCT-15) was > 100 µM and the GI50 (SK-MEL-28) was > 100 µM (inactive). For the same compound, the GI50 (SF-295) was > 100 µM (inactive), the GI50 (SNB-75) was > 100 µM (inactive) and the GI50 (A549) was > 100 µM (inactive). For the same compound, the GI50 (DU-145) was > 100 µM (inactive), the GI50 (A498) was 42.9 µM (inactive) and the GI50 (UACC-257) was 29 µM (inactive). For the same compound, the GI50 (NCI-H23) was > 100 µM (inactive), the GI50 (HCT-116) was > 100 µM (inactive) and the GI50 (MDA-MB-231) was > 100 µM (inactive). The GI50 (ACHN) was > 100 µM (inactive), the GI50 (COLO 205) was > 100 µM (inactive) and the GI50 (EKVX) was > 100 µM (inactive). The GI50 (OVCAR-3) was > 100 µM (inactive), the GI50 (SK-OV-3) was > 100 µM (inactive) and the GI50 (HOP-92) was > 100 µM (inactive). The GI50 (PC-3) was > 100 µM (inactive), the GI50 (SK-MEL-5) was > 100 µM (inactive) and the GI50 (TK-10) was 34.1 µM (inactive). The GI50 (OVCAR-5) was > 100 µM (inactive), the GI50 (Hs-578T) was > 100 µM (inactive) and the GI50 (MCF7) was > 100 µM (inactive). The GI50 (M14) was > 100 µM (inactive), the GI50 (HOP-62) was > 100 µM (inactive) and the GI50 (HT-29) was > 100 µM (inactive). The GI50 (786-0) was > 100 µM (inactive), the GI50 (LOX IMVI) was > 100 µM (inactive) and the GI50 (SW-620) was > 100 µM (inactive). The GI50 (MDA-MB-435) was > 100 µM (inactive), the GI50 (SF-268) was > 100 µM (inactive) and the GI50 (MDA-N) was > 100 µM (inactive). For the same compound, the GI50 (KM12) was > 100 µM (inactive), the GI50 (IGROV-1) was > 100 µM (inactive) and the GI50 (MOLT-4) was > 100 µM (inactive). The GI50 (NCI-H226) was > 100 µM (inactive), the GI50 (SNB-19) was > 100 µM (inactive) and the GI50 (U-251) was > 100 µM (inactive).
In the case of `COc1cccc(/C=C/c2ccc(S(N)(=O)=O)cc2)c1`, the GI50 (UO-31) is reported as 18.6 µM (inactive), the GI50 (T47D) is reported as 4.94 µM (inactive) and the GI50 (SK-MEL-2) is reported as 5.9 µM (inactive). The GI50 (NCI/ADR-RES) was 23.1 µM (inactive), the GI50 (SN12C) was 18.2 µM (inactive) and the GI50 (SK-MEL-28) was 44 µM (inactive). For the same compound, the GI50 (SF-295) was 6.75 µM (inactive), the GI50 (SNB-75) was 17.4 µM (inactive) and the GI50 (DU-145) was 26.1 µM (inactive). The GI50 (UACC-257) was 16.4 µM (inactive), the GI50 (HCT-116) was 7.36 µM (inactive) and the GI50 (MDA-MB-231) was 25.1 µM (inactive). For the same compound, the GI50 (COLO 205) was 11.7 µM (inactive), the GI50 (EKVX) was 11.8 µM (inactive) and the GI50 (OVCAR-3) was 5.31 µM (inactive). For the same compound, the GI50 (SK-OV-3) was 30.4 µM (inactive), the GI50 (PC-3) was 22.7 µM (inactive) and the GI50 (SK-MEL-5) was 17.1 µM (inactive). The GI50 (TK-10) was 12.5 µM (inactive), the GI50 (OVCAR-5) was 59.4 µM (inactive) and the GI50 (MCF7) was 8.07 µM (inactive). The GI50 (M14) was 36.1 µM (inactive), the GI50 (Malme-3M) was 23.2 µM (inactive) and the GI50 (HOP-62) was 24 µM (inactive). For the same compound, the GI50 (786-0) was 17.8 µM (inactive), the GI50 (NCI-H460) was 10.3 µM (inactive) and the GI50 (HCC 2998) was 10.5 µM (inactive). The GI50 (MDA-N) was 17 µM (inactive), the GI50 (RXF 393) was 5.5 µM (inactive) and the GI50 (SNB-19) was 46.6 µM (inactive).

— ChEMBL document CHEMBL1201862, “PubChem BioAssay data set” (2004)
